In patent US20240294488A1, “ISOTOPOLOGES, SALTS, CRYSTALLINE FORMS, STEREOISOMERS, OF METHYLONE AND ETHYLONE AND METHODS OF USE THEREOF” (Terran Biosciences Inc., priority 2021, published 2024):
Where a name gives a salt, the structure may show the parent alone.

Legend:
[1] = system: participants diagnosed with at least moderate post-traumatic stress disorder (PTSD); test: Double-blind, randomized, placebo-controlled clinical trial of methylone-assisted psychotherapy in PTSD; assay type: in vivo, human; settings: for CAPS-5 assessments: Intervening Session 1C, 2C, 3C and Study Conclusion; for daytime sleepiness as measured by ESS / change in CAPS-5 assessment / clinician-rated functional impairment score as measured by SDS / depression as measured by HAM-D: at Study Conclusion; for change in CAPS-5 assessment: vs placebo group, with psychotherapy
Experimental: A multicenter, randomized, double-blind, placebo-controlled trial is conducted to assess the efficacy and safety of methylone-assisted psychotherapy versus psychotherapy with placebo control in participants diagnosed with at least moderate post-traumatic stress disorder (PTSD).
This multicenter, randomized, double-blind, placebo-controlled trial is conducted at various sites in the United States with IRB approval from each study site. A flexible dose of methylone hydrochloride salt or placebo, followed by a supplemental half-dose unless contraindicated by patient's previous response or medical history, is also administered during the Treatment Period with psychotherapy in at least 3 blinded monthly Experimental Sessions. The Supplemental Dose extends the duration of drug effects on the participants during an Experimental Session. Methylone test groups are further subdivided into specific groups receiving only racemic methylone hydrochloride salt, S-methylone hydrochloride salt, or R-methylone hydrochloride salt. An optional Risk Evaluation and Mitigation Strategy (REMS) Protocol may be implemented for the racemic methylone, S-methylone, and placebo-groups. The Treatment Period lasts for approximately 12 weeks. During the Treatment Period, each Experimental Session is followed by three Intervening Sessions of non-drug psychotherapy. Each Experimental Session involves an overnight stay. The Primary Outcome measure, the change in Clinician Administered PTSD Scale for DSM-5 (CAPS-5), is determined by a blinded Independent Rater (IR) pool multiple times throughout the study. The study consists of separate periods for each participant. Initially, prospective participants undergo a Screening Period involving an initial eligibility assessment, a medical history intake, informed consent, and enrollment of eligible participants. Next, a Preparation Period is undertaken for enrolled participants involving medication tapering and clinical baseline assessments to confirm each participant meets enrollment criteria. As part of the Preparation Period, a detailed assessment of co-morbidities to PTSD is recorded. Participants may remain on prescribed courses of selective serotonin reuptake inhibitor (SSRI) or serotonin and norepinephrine reuptake inhibitor (SNRI) treatment. Dosages and/or frequency of administration of a prescribed SSRI or SNRI may be adjusted to fit within study parameters. Participants may be required to taper a prescribed course of medication in order to maintain eligibility within the study. The Treatment Period consists of three monthly Experimental Sessions and associated Intervening Sessions of integrative behavioral psychotherapy. The Treatment Period lasts approximately 12 weeks. Following the Treatment Period is a Follow-up Period and Study Conclusion. During the Follow-up Period and Study Conclusion, participants complete 4 weeks with no study visits, followed by a Study Conclusion visit.
This study compares the effects of three blinded Experimental Sessions of psychotherapy in combination with flexible doses of methylone or placebo administered as described below. Non-drug preparatory and intervening psychotherapy sessions are also included. Patient's weight is determined for dosage calculation. Initial dose is 100 mg unless this will result in a dosage of less than 1.5 mg/kg of patient weight. Initial dose thereby adjusted upward in 25 mg increments to deliver the lowest dose possible of at least 1.5 mg/kg of patient weight. Initial dose for Experimental Session 2 and 3 is cumulative dose calculated by adding the initial dose plus REMS protocol dose used the previous Experimental Session for each patient.
Randomization occurs prior to the initiation of Experimental Session 1. Each participant is provided the next randomized number in a sequence by a blinded study monitor. […]

[2] = Metabolic stability in human liver microsomes; assay type: in vitro ADME; settings: pooled liver microsomes, pH 7.4; human liver microsomes 0.5 mg/mL, 1 μM compound, NADPH, 0-45 min
Experimental: Pooled liver microsomes are purchased from a reputable commercial supplier. Microsomes are stored at […] prior to use. Microsomes (final protein concentration 0.5 mg/mL), 0.1 M phosphate buffer pH 7.4 and test compound (final substrate concentration 1 μM; final DMSO concentration 0.25%) are preincubated at 37° C. prior to the addition of NADPH (final concentration 1 mM) to initiate the reaction. A minus cofactor control incubation is included for each compound tested where 0.1 M phosphate buffer pH 7.4 is added instead of NADPH (minus NADPH). Two control compounds are included with each species. All incubations are performed singularly for each test compound. Each compound is incubated for 0, 5, 15, 30 and 45 min. The control (minus NADPH) is incubated for 45 min only. The reactions are stopped by transferring incubate into acetonitrile at the appropriate time points, in a 1:3 ratio. The termination plates are centrifuged at 3,000 rpm for 20 min at 4° C. to precipitate the protein.
From a plot of ln peak area ratio (compound peak area/internal standard peak area) against time, the gradient of the line is determined. Subsequently, half-life and intrinsic clearance are calculated using the equations below:
where V=Incubation volume (μL)/Microsomal protein (mg)
Relevant control compounds were assessed, ensuring intrinsic clearance values fall within the specified limits (if available).

SMILES	CAPS-5 assessments ([1]; vs placebo-treated controls)	daytime sleepiness as measured by ESS [1]	change in CAPS-5 assessment [1]	clinician-rated functional impairment score as measured by SDS ([1]; vs placebo-treated controls)	depression as measured by HAM-D ([1]; vs placebo-treated controls)	half-life at 1 μM [2] [h]	microsomal CLint at 1 μM [2] [µL/min/mg]	adverse anxiogenic incidents ([1]; PTSD participants, vs placebo-treated controls)	total dosage of drug needed for significant mean reduction in CAPS-5, compared to racemic methylone-treated subgroup ([1]; PTSD participants)
CNC(C)C(=O)c1ccc2c(c1)OCO2 (racemic) [(rac)-Methylone Hydrochloride, 3,4-methylenedioxy-N-methylcathinone hydrochloride]	Significant improvements in CAPS-5 assessments	a significant improvement in lessening daytime sleepiness	a significant mean reduction in CAPS-5 assessment	a significant improvement in clinician-rated functional impairment score	a significant improvement depression	2.62	8.84		
CN[C@H](C)C(=O)c1ccc2c(c1)OCO2 [(R)-Methylone Hydrochloride, (R)-1-(Benzo[d][1,3]dioxol-5-yl)-2-(methylamino)propan-1-one Hydrochloride]	Significant improvements in CAPS-5 assessments	a significant improvement in lessening daytime sleepiness	a significant mean reduction in CAPS-5 assessment	a significant improvement in clinician-rated functional impairment score	a significant improvement depression	3.38	6.82	without a significant increase in adverse anxiogenic incidents	
CN[C@@H](C)C(=O)c1ccc2c(c1)OCO2 [(S)-Methylone Hydrochloride, (S)-1-(Benzo[d][1,3]dioxol-5-yl)-2-(methylamino)propan-1-one Hydrochloride]	Significant improvements in CAPS-5 assessments	a significant improvement in lessening daytime sleepiness	a significant mean reduction in CAPS-5 assessment	a significant improvement in clinician-rated functional impairment score	a significant improvement depression	2.28	10.1		lower total dosage of drug
